Legend:
[1] = biological target: T1, Full length DGKα (D21-10BG, SignalChem) (Homo sapiens, UniProt P23743); experiment: Biochemical DGK IC50 assay (ADP-Glo, lipid micelle substrate), DGKα; details: 1 hour preincubation, 1 hour reaction, room temperature
T1 construct: Full length DGKα (D21-10BG, SignalChem); purchased SignalChem D21-10BG
Method in brief: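 Full-length human DGKα with DAG/PS lipid micelle substrate (in octyl glucoside buffer), reacted 1 h at room temperature in 50 mM HEPES, 10 mM MgCl2, 0.01 mM CaCl2, 0.1 mM Na3VO4, 0.01% BSA, 0.005% Tween-20. ADP formed read by ADP-Glo luminescence; IC50 from inhibition across increasing compound concentrations.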

[2] = biological target: T2, Full length DGKζ (in-house protein M1-V929) (Homo sapiens, UniProt Q13574); experiment: Biochemical DGK IC50 assay (ADP-Glo, lipid micelle substrate), DGKζ; details: 1 hour preincubation, 1 hour reaction, room temperature
T2 construct: His (N); TEV site (N); made in house; host or cells: Sf9 insect cells (Bac-to-Bac baculovirus)
Method in brief: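 Full-length human DGKζ (M1-V929, His-TEV tagged, Sf9 baculovirus-expressed) with DAG/PS lipid micelle substrate in octyl glucoside, at room temperature in 50 mM HEPES, 10 mM MgCl2, 0.01 mM CaCl2 buffer.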

T1 sequence (P23743 whole entry): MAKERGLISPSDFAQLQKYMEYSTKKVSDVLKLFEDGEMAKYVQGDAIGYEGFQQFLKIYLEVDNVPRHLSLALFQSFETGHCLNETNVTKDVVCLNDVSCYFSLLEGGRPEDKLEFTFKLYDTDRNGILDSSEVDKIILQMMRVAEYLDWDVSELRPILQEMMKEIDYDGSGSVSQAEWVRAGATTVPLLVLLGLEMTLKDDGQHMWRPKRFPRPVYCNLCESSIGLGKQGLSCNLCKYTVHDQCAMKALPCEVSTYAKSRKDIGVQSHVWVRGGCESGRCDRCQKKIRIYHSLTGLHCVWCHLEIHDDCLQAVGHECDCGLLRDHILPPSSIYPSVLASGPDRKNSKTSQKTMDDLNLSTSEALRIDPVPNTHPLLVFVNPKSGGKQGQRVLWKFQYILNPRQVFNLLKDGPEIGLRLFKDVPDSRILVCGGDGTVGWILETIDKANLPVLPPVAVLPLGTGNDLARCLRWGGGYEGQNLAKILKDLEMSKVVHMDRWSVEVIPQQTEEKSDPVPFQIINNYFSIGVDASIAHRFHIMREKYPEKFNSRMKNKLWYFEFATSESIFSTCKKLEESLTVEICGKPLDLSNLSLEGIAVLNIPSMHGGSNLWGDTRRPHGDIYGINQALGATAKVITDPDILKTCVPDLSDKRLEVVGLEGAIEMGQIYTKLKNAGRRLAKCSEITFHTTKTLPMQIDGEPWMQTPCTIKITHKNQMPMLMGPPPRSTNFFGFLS
T2 sequence (Q13574 1-929 isoform Q13574-4): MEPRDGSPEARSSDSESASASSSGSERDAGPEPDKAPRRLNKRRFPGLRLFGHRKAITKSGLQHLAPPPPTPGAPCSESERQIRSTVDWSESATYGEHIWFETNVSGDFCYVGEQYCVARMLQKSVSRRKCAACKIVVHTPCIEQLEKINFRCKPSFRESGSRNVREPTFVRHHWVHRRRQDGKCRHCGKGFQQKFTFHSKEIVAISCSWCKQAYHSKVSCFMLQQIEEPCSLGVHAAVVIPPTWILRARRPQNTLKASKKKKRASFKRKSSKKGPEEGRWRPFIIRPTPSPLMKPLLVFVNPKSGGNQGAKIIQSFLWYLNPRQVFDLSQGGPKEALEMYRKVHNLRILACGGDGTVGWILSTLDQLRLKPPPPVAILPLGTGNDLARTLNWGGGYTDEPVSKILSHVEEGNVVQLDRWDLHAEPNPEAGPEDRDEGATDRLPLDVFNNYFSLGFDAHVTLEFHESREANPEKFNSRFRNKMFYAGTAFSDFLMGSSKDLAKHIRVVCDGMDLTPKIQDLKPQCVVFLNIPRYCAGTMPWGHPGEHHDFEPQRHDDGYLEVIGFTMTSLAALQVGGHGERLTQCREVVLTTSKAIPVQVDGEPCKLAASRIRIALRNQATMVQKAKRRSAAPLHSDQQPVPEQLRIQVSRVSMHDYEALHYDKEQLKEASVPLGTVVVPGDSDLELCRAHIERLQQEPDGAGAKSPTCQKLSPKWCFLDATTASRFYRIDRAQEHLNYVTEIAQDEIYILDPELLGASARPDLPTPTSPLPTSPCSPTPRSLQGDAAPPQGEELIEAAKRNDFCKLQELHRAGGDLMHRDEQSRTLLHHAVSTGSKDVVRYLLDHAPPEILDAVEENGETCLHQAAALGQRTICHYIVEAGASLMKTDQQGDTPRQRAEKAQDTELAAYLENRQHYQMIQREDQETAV

Row | IC50 [1] | IC50 [2] | Structure (SMILES)
1 | > 150 µM | 839 nM | CCn1c(CC#N)nc2c(N3C[C@@H](C)N(C(C)c4csc(C(F)(F)F)n4)C[C@@H]3C)nc(=O)n(C)c21 (stereo partly drawn) [Compound A104, 2-(6-((2S,5R)-2,5-dimethyl-4-(1-(2-(trifluoromethyl)thiazol-4-yl)ethyl)piperazin-1-yl)-9-ethyl-3-methyl-2-oxo-3,9-dihydro-2H-purin-8-yl)acetonitrile]
2 | > 150 µM | > 10000 nM | CCn1c(CC#N)nc2c(N3C[C@@H](C)N(C(C)c4ccc(=O)n(C)c4)C[C@@H]3C)nc(=O)n(C)c21 (stereo partly drawn) [Compound A106, 2-(6-((2S,5R)-2,5-dimethyl-4-(1-(1-methyl-6-oxo-1,6-dihydropyridin-3-yl)ethyl)piperazin-1-yl)-9-ethyl-3-methyl-2-oxo-3,9-dihydro-2H-purin-8-yl)acetonitrile]
3 | > 150 µM | 771 nM | CCn1c(CC#N)nc2c(N3C[C@@H](C)N(C(C)c4cccc(C(C)(C)O)c4)C[C@@H]3C)nc(=O)n(C)c21 (stereo partly drawn) [Compound A111, 2-(9-ethyl-6-((2S,5R)-4-(1-(3-(2-hydroxypropan-2-yl)phenyl)ethyl)-2,5-dimethylpiperazin-1-yl)-3-methyl-2-oxo-3,9-dihydro-2H-purin-8-yl)acetonitrile]
4 | > 150 µM | 35 nM | CCn1c(CC#N)nc2c(N3C[C@@H](C)N(C(C)c4ccc(F)c(C(F)F)c4)C[C@@H]3C)nc(=O)n(C)c21 (stereo partly drawn) [Compound A112, 2-(6-((2S,5R)-4-(1-(3-(difluoromethyl)-4-fluorophenyl)ethyl)-2,5-dimethylpiperazin-1-yl)-9-ethyl-3-methyl-2-oxo-3,9-dihydro-2H-purin-8-yl)acetonitrile]
5 | > 150 µM | 834 nM | CCn1c(CC#N)nc2c(N3C[C@@H](C)N(C(C)c4ccnc(NC(C)C)c4)C[C@@H]3C)nc(=O)n(C)c21 (stereo partly drawn) [Compound A122, 2-(9-ethyl-6-((2S,5R)-4-(1-(2-(isopropylamino)pyridin-4-yl)ethyl)-2,5-dimethylpiperazin-1-yl)-3-methyl-2-oxo-3,9-dihydro-2H-purin-8-yl)acetonitrile]
6 | 128 µM | 49 nM | CCn1c(CC#N)nc2c(N3C[C@@H](C)N(C(C)c4cccc(C(C)C)n4)C[C@@H]3C)nc(=O)n(C)c21 (stereo partly drawn) [Compound A123, 2-(9-ethyl-6-((2S,5R)-4-(1-(6-isopropylpyridin-2-yl)ethyl)-2,5-dimethylpiperazin-1-yl)-3-methyl-2-oxo-3,9-dihydro-2H-purin-8-yl)acetonitrile]
7 | 124 µM | 24 nM | CCn1c(CC#N)nc2c(N3C[C@@H](C)N(C(C)c4cccc(C5(C)CC5)c4)C[C@@H]3C)nc(=O)n(C)c21 (stereo partly drawn) [Compound A126, 2-(6-((2S,5R)-2,5-dimethyl-4-(1-(3-(1-methylcyclopropyl)phenyl)ethyl)piperazin-1-yl)-9-ethyl-3-methyl-2-oxo-3,9-dihydro-2H-purin-8-yl)acetonitrile]
8 | > 150 µM | 3900 nM | CCn1c(CC#N)nc2c(N3C[C@@H](C)N(C(C)c4ccnc(C(=O)NC)c4)C[C@@H]3C)nc(=O)n(C)c21 (stereo partly drawn) [Compound A130, 4-(1-((2R,5S)-4-(8-(cyanomethyl)-9-ethyl-3-methyl-2-oxo-3,9-dihydro-2H-purin-6-yl)-2,5-dimethylpiperazin-1-yl)ethyl)-N-methylpicolinamide]
9 | > 150 µM | 14 nM | C=C(C)c1cc(C(C)N2C[C@H](C)N(c3nc(=O)n(C)c4c3nc(CC#N)n4CC)C[C@H]2C)ccc1F (stereo partly drawn) [Compound A135, 2-(9-ethyl-6-((2S,5R)-4-(1-(4-fluoro-3-(prop-1-en-2-yl)phenyl)ethyl)-2,5-dimethylpiperazin-1-yl)-3-methyl-2-oxo-3,9-dihydro-2H-purin-8-yl)acetonitrile]

The next lines start with the compound.

Row | Structure (SMILES) | IC50 [1] | IC50 [2]
10 | CCn1c(CC#N)nc2c(N3C[C@@H](C)N(C(C)c4ccc5c(n4)C(F)(F)CCO5)C[C@@H]3C)nc(=O)n(C)c21 (stereo partly drawn) [Compound A102, 2-(6-((2S,5R)-4-(1-(4,4-difluoro-3,4-dihydro-2H-pyrano[3,2-b]pyridin-6-yl)ethyl)-2,5-dimethylpiperazin-1-yl)-9-ethyl-3-methyl-2-oxo-3,9-dihydro-2H-purin-8-yl)acetonitrile] | > 150 µM | 37 nM
11 | CCn1c(CC#N)nc2c(N3C[C@@H](C)N(C(C)c4ccn(C)c(=O)c4)C[C@@H]3C)nc(=O)n(C)c21 (stereo partly drawn) [Compound A107, 2-(6-((2S,5R)-2,5-dimethyl-4-(1-(1-methyl-2-oxo-1,2-dihydropyridin-4-yl)ethyl)piperazin-1-yl)-9-ethyl-3-methyl-2-oxo-3,9-dihydro-2H-purin-8-yl)acetonitrile] | > 150 µM | > 10000 nM
12 | CCn1c(CC#N)nc2c(N3C[C@@H](C)N(C(C)c4ccc(F)c(C(F)(F)F)c4)C[C@@H]3C)nc(=O)n(C)c21 (stereo partly drawn) [Compound A113, 2-(9-ethyl-6-((2S,5R)-4-(1-(4-fluoro-3-(trifluoromethyl)phenyl)ethyl)-2,5-dimethylpiperazin-1-yl)-3-methyl-2-oxo-3,9-dihydro-2H-purin-8-yl)acetonitrile] | > 150 µM | 18 nM
13 | CCn1c(CC#N)nc2c(N3C[C@@H](C)N(C(C)c4cc(C(F)(F)F)ccc4F)C[C@@H]3C)nc(=O)n(C)c21 (stereo partly drawn) [Compound A114, 2-(9-ethyl-6-((2S,5R)-4-(1-(2-fluoro-5-(trifluoromethyl)phenyl)ethyl)-2,5-dimethylpiperazin-1-yl)-3-methyl-2-oxo-3,9-dihydro-2H-purin-8-yl)acetonitrile] | 135 µM | 246 nM
14 | CCn1c(CC#N)nc2c(N3C[C@@H](C)N(C(C)c4ccc(C)c(C(F)(F)F)c4)C[C@@H]3C)nc(=O)n(C)c21 (stereo partly drawn) [Compound A115, 2-(6-((2S,5R)-2,5-dimethyl-4-(1-(4-methyl-3-(trifluoromethyl)phenyl)ethyl)piperazin-1-yl)-9-ethyl-3-methyl-2-oxo-3,9-dihydro-2H-purin-8-yl)acetonitrile] | > 150 µM | 19 nM
15 | CCn1c(CC#N)nc2c(N3C[C@@H](C)N(C(C)c4ccc(C)cc4C(F)(F)F)C[C@@H]3C)nc(=O)n(C)c21 (stereo partly drawn) [Compound A116, 2-(6-((2S,5R)-2,5-dimethyl-4-(1-(4-methyl-2-(trifluoromethyl)phenyl)ethyl)piperazin-1-yl)-9-ethyl-3-methyl-2-oxo-3,9-dihydro-2H-purin-8-yl)acetonitrile] | > 150 µM | 350 nM
16 | CCn1c(CC#N)nc2c(N3C[C@@H](C)N(C(C)c4cc(C(F)(F)F)ccn4)C[C@@H]3C)nc(=O)n(C)c21 (stereo partly drawn) [Compound A120, 2-(6-((2S,5R)-2,5-dimethyl-4-(1-(4-(trifluoromethyl)pyridin-2-yl)ethyl)piperazin-1-yl)-9-ethyl-3-methyl-2-oxo-3,9-dihydro-2H-purin-8-yl)acetonitrile] | > 150 µM | 1280 nM
17 | CCn1c(CC#N)nc2c(N3C[C@@H](C)N(C(C)c4ccnc(N5CCC5)c4)C[C@@H]3C)nc(=O)n(C)c21 (stereo partly drawn) [Compound A121, 2-(6-((2S,5R)-4-(1-(2-(azetidin-1-yl)pyridin-4-yl)ethyl)-2,5-dimethylpiperazin-1-yl)-9-ethyl-3-methyl-2-oxo-3,9-dihydro-2H-purin-8-yl)acetonitrile] | > 150 µM | 212 nM
18 | CCn1c(CC#N)nc2c(N3C[C@@H](C)N(C(C)c4ccnc(OC(C)C)c4)C[C@@H]3C)nc(=O)n(C)c21 (stereo partly drawn) [Compound A124, 2-(9-ethyl-6-((2S,5R)-4-(1-(2-isopropoxypyridin-4-yl)ethyl)-2,5-dimethylpiperazin-1-yl)-3-methyl-2-oxo-3,9-dihydro-2H-purin-8-yl)acetonitrile] | 111 µM | 48 nM
19 | CCn1c(CC#N)nc2c(N3C[C@@H](C)N(C(C)c4cccc(C5CC5)c4)C[C@@H]3C)nc(=O)n(C)c21 (stereo partly drawn) [Compound A125, 2-(6-((2S,5R)-4-(1-(3-cyclopropylphenyl)ethyl)-2,5-dimethylpiperazin-1-yl)-9-ethyl-3-methyl-2-oxo-3,9-dihydro-2H-purin-8-yl)acetonitrile] | > 150 µM | 42 nM
20 | CCn1c(CC#N)nc2c(N3C[C@@H](C)N(C(C)c4cccc(C5COC5)c4)C[C@@H]3C)nc(=O)n(C)c21 (stereo partly drawn) [Compound A127, 2-(6-((2S,5R)-2,5-dimethyl-4-(1-(3-(oxetan-3-yl)phenyl)ethyl)piperazin-1-yl)-9-ethyl-3-methyl-2-oxo-3,9-dihydro-2H-purin-8-yl)acetonitrile] | > 150 µM | 428 nM
21 | CCn1c(CC#N)nc2c(N3C[C@@H](C)N(C(C)c4ccnc(C(C)(C)C)c4)C[C@@H]3C)nc(=O)n(C)c21 (stereo partly drawn) [Compound A129, 2-(6-((2S,5R)-4-(1-(2-(tert-butyl)pyridin-4-yl)ethyl)-2,5-dimethylpiperazin-1-yl)-9-ethyl-3-methyl-2-oxo-3,9-dihydro-2H-purin-8-yl)acetonitrile] | > 150 µM | 4 nM
22 | CCn1c(CC#N)nc2c(N3C[C@@H](C)N(C(C)c4cccc(C(C)(C)CO)c4)C[C@@H]3C)nc(=O)n(C)c21 (stereo partly drawn) [Compound A133, 2-(9-ethyl-6-((2S,5R)-4-(1-(3-(1-hydroxy-2-methylpropan-2-yl)phenyl)ethyl)-2,5-dimethylpiperazin-1-yl)-3-methyl-2-oxo-3,9-dihydro-2H-purin-8-yl)acetonitrile] | > 150 µM | 111 nM
23 | CCn1c(CC#N)nc2c(N3C[C@@H](C)N(C(C)c4cccc(C(C)(C)C#N)c4)C[C@@H]3C)nc(=O)n(C)c21 (stereo partly drawn) [Compound A134, 2-(3-(1-((2R,5S)-4-(8-(cyanomethyl)-9-ethyl-3-methyl-2-oxo-3,9-dihydro-2H-purin-6-yl)-2,5-dimethylpiperazin-1-yl)ethyl)phenyl)-2-methylpropanenitrile] | 113 µM | 22 nM

Reference: US20260125378A2, “Heterocyclic Compounds” (BeOne Medicines I GmbH, priority 2023, published 2026)
